In patent US20030082787A1, “Plant histidine biosynthetic enzymes” (priority 2001, published 2003):

System: HisA enzyme from Nicotiana Plumbaginifolia
Assay: HisA enzyme activity assay (INT/PMS dye, absorbance at 530 nm)
Type: biochemical
Conditions: partially purified recombinant enzyme expressed in E. coli BL21 (DE3); 0.2 M Triethanolamine pH 8.5, 30° C.; read-out: Km for substrate
Experimental: The HisA enzyme from Nicotiana Plumbaginifolia was partially purified and assayed as follows. A plasmid clone with the cDNA insert in the correct orientation relative to the T7 promoter was transformed into E. coli strain BL21 (DE3) (Studier et al. (1986) J. Mol. Biol. 189:113-130). Cultures are grown in LB medium carbenicillin ([…]) at 28° C. to an optical denisity of 0.44 at 600 nm. Each liter of LB/carbenicillin was inoculated with 20 mL of the overnight culture. These one liter cultures were incubated at 26° C. with agitation for 21 hours. HisA expression was induced as described above. The cells were harvested by centrifugation and frozen at −80° C.
Each gram of cell paste was resuspended in two milliliters of 20 mM Triethanolamine buffer at pH 8.3 containing Complete™ protease inhibitors (Boehringer Mannheim) and 1 mM EDTA. The cells were disrupted by three passes through a microfluidizer and the lysed cell debris was removed by centrifugation. The supernatant was treated with streptomycin sulfate which was added to a final concentration of 1%. […]
HisA enzyme activity was assayed essentially as described by Margolies et al., (1966) J. Biol. Chem. 241:3262-3269. […] Blank reactions containing either no enzyme or no substrate were also prepared to control for background absorbance. […] The absorbance at 530 nm was measured.

## NC(=O)c1ncn([C@@H]2O[C@H](COP(=O)(O)O)[C@@H](O)[C@H]2O)c1N=CN[C@@H]1O[C@H](COP(=O)(O)O)[C@@H](O)[C@H]1O [5′ Profar, N1-[(5′-phospho-b-D-ribosyl)formimino]-5-aminoimidazole-4-carboxamide ribonucleotide]
  Km: 200 µM
